Results: patent publication US20100203156A1, “XENON AS A TREATMENT FOR HEMOGLOBINOPATHY” (priority 2009, published 2010)

Key:
[1] = system: spinal dorsal horn neurons; conditions: cited from earlier work; for nociception depending on age: various ages / the young
HbS = HbS (Homo sapiens, UniProt P68871+P69905, E7V); conditions: cited from earlier work
hemoglobin [2] = target: T1, hemoglobin (Homo sapiens, UniProt P68871+P69905); assay: association rates of gases for hemoglobin; format: binding
[3] = cited from earlier work
[4] = inhaled xenon; cited from earlier work
[5] = with oxygen, human adults; cited from earlier work
hemoglobin [6] = target: T1, hemoglobin; conditions: cited from earlier work

Compound: [N-]=[N+]=O [nitrous oxide]
- nociception depending on age [1]: ineffective in the young

Compound: C [methane]
- effect on HbS aggregation (HbS): prevent and reverse HbS aggregation

Compound: [Xe] [xenon]
- xenon association rate for hemoglobin relative to CO (hemoglobin [2]; versus CO): 10 times faster
- xenon association rate for hemoglobin relative to O2 (hemoglobin [2]; versus O2): 1-2 times faster
- analgesia to cold pain ([3]; human, in vivo): not to cold pain
- analgesia to ischemic, electrical, mechanical, and heat stimulation ([3]; human, in vivo): produced analgesia
- analgesic potency compared with nitrous oxide ([3]; human, in vivo): comparable or superior to nitrous oxide
- response to experimentally induced, standardized forms of pain ([3]; inhaled dose of ~20%, healthy volunteers): significantly decrease the response
- inhaled concentration at which nausea and vomiting has been observed [4]: > 30%
- 1 MAC, inhaled fractional concentration [5]: 0.63-0.73
- xenon in blood carried by hemoglobin (hemoglobin [6]; during xenon inhalation, estimated): 45%
- amount of xenon bound by reduced and oxyhemoglobin (hemoglobin [6]; reduced versus oxyhemoglobin): approximately the same
- nociceptive responsiveness of spinal dorsal horn neurons ([1]; animal studies): directly inhibited
- nociception depending on age [1]: reduce nociception at various ages

Compound: CC [ethane]
- effect on HbS aggregation (HbS): prevent and reverse HbS aggregation

Compound: CCC [propane]
- effect on HbS aggregation (HbS): prevent and reverse HbS aggregation
